Data set [1] concerns Human fibroblasts (WI-38). Description: Collagen synthesis, procollagen type-I C-peptide kit. In kind it is cell-based. The settings on record: WI-38 fibroblasts, 24 h; for collagen production as compared to the control (sample-untreated cells): 1×10^−4% (w/v) or lower.
Experimental: Human fibroblasts (WI-38) that had been stored at −80° C. or in liquid nitrogen were used. The cells were uniformly placed on a 96-well plate, with 2.0×10^4 cells/well.
After culturing in MEM (FBS 5%) for 24 hours, the medium was replaced with a fresh serum-free medium and the cells were treated with gradually diluted sample. […] After treatment with the sample, the cells were further cultured for 24 hours on a 96-well plate. Then, the quantity of collagen was measured using a collagen measurement kit (Procollagen type-I C-peptide MK101, Takara).
The test system of data set [2] is human fibroblasts. How it is done:
MTT [3-(4,5-dimethylthiazol-2-yl)-2,5-diphenyltetrazolium bromide, Sigma M5655] assay was carried out to test the effect of the sample on proliferation of human fibroblasts.
The fibroblasts that had been stored at −80° C. or in liquid nitrogen were used. The cells were uniformly placed on a 96-well plate, with 2.0×10^4 cells/well. After culturing in MEM (FBS 5%) for 24 hours, the medium was replaced with a fresh serum-free medium and the cells were treated with gradually diluted sample. The samples were ginsenoside Rd and retinol. After treatment with the sample, the cells were further cultured for 24 hours on a 96-well plate. Subsequently, after adding 10 μL of MTT solution (5 mg/mL) to each well, the cells were cultured for 4 hours. After removing the medium and adding 100 μL of dimethyl sulfoxide to each well followed by shaking for 10 minutes, absorbance was measured at 540 nm using an ELISA reader.

Where two headings read alike, the source gives them in different places.

This is an account of results in US20110318397A1, “METHOD FOR PREPARING HIGH PURITY GINSENOSIDE RD USING LACTOBACILLUS CASEI AND COSMETIC COMPOSITION FOR ANTI-WRINKLE COMPRISING THE HIGH PURITY GINSENOSIDE RD” (priority 2010, published 2011).

One may read the cell viability as a per cent measure of how many cells are alive, often set against a control. In turn, `CC1=C(/C=C/C(C)=C/C=C/C(C)=C/CO)C(C)(C)CCC1` [Retinol, retinol, reference compound] showed a maximum collagen production in data set [1] (at 1×10^−2 (w/v) or lower) of 30%. Also, the cell viability in data set [2] (human, 24 h) is on record as 100%.

For the compound `CC(C)=CCC[C@](C)(O)[C@H]1CC[C@]2(C)[C@@H]1[C@H](O)C[C@@H]1[C@@]3(C)CC[C@H](O)C(C)(C)[C@@H]3[C@@H](O[C@@H]3O[C@H](CO)[C@@H](O)[C@H](O)[C@H]3O[C@@H]3O[C@@H](C)[C@H](O)[C@@H](O)[C@H]3O)C[C@]12C` [Rg2, ginsenoside Rg2], in data set [1], the “collagen production as compared to the control (sample-untreated cells)” value was “remarkably decreased collagen production”.

Regarding `CC(C)=CCC[C@](C)(O[C@@H]1O[C@H](CO)[C@@H](O)[C@H](O)[C@H]1O)[C@H]1CC[C@]2(C)[C@@H]1[C@H](O)C[C@@H]1[C@@]3(C)CC[C@H](O[C@@H]4O[C@H](CO)[C@@H](O)[C@H](O)[C@H]4O[C@@H]4O[C@H](CO)[C@@H](O)[C@H](O)[C@H]4O)C(C)(C)[C@@H]3CC[C@]12C` [ginsenoside Rd], the “collagen production as compared to the control (sample-untreated cells)” value in data set [1] was “slightly decreased collagen production”. In data set [2], the cell viability came out at 100% and the cytotoxicity entry was “no cytotoxicity”.
